We go through 1 compound from US20100105688A1, “PHARMACEUTICAL COMPOSITIONS COMPRISING 3,5-DIAMINO-6-(2,3-DICHLOPHENYL)-1,2,4-TRIAZINE OR R(-)-2,4-DIAMINO-5-(2,3-DICHLOROPHENYL)-6-FLUOROMETHYL PYRIMIDINE AND AN NK1” (GLAXO GROUP LIMITED, priority 2007, published 2010).

The data set is described as follows: Blood and brain concentrations in satellite animals of the MEST study. It is filed as in vivo, rat. The note with it: satellite rats; for concentration at 60 min: rat, po, n = 1. The protocol: Satellite animals (n=3/group) received the same drugs or combinations of drugs as the test groups, and were culled at the appropriate time after dosing. Blood and brain samples were taken for analysis of the drug concentrations in these compartments.
All doses were calculated as base. ENa9 and ENa13 were dosed via the subcutaneous (s.c.) route at 1 ml/kg in a 2% v/v DMSO/saline vehicle 30 minutes prior to test. ENa7 and ENa14 were dosed orally (p.o.) in a 1% w/v methylcellulose/water vehicle at 2 ml/kg, 60 minutes before test. Compound ENK6 was dosed with via the intraperitoneal (i.p.) route 60 minutes before the test or via the s.c. route 15 minutes before test. In both cases ENK6 was dissolved in saline.

The mark [1] stands for this setting: ENK6 10 mg/kg s.c. + ENa7 1 mg/kg p.o., n = 2-3.
Where [2] appears, read: ENK6 10 mg/kg s.c. + ENa7 3 mg/kg p.o., n = 2-3.
Setting [3] is: ENK6 30 mg/kg s.c. + ENa7 1 mg/kg p.o., n = 2.
Setting [4] is: ENK6 30 mg/kg s.c. + ENa7 3 mg/kg p.o., n = 2.

Like-named read-outs stand apart in the source and are kept apart here.

Regarding `Nc1nnc(-c2cccc(Cl)c2Cl)c(N)n1` [ENa7, 3,5-diamino-6-(2,3-dichlorophenyl)-1,2,4-triazine, reference compound], the concentration at 60 min is 311 ng/mL (blood, 1 mg/kg, ENK6 veh + ENa7 1 mg/kg p.o. (Table 3), read-out: Blood concentration); 352 ng/mL (blood, 1 mg/kg, ENK6 veh + ENa7 1 mg/kg p.o. (Table 4), read-out: Blood concentration); 1180 ng/mL (blood, 3 mg/kg, ENK6 veh + ENa7 3 mg/kg p.o. (Table 3), read-out: Blood concentration); 1350 ng/mL (blood, 3 mg/kg, ENK6 veh + ENa7 3 mg/kg p.o. (Table 4), read-out: Blood concentration); 517 ng/g (brain, 1 mg/kg, ENK6 veh + ENa7 1 mg/kg p.o. (Table 3), read-out: Brain concentration); 588 ng/g (brain, 1 mg/kg, ENK6 veh + ENa7 1 mg/kg p.o. (Table 4), read-out: Brain concentration). The concentration at 60 min turned out to be 2830 ng/g (brain, 3 mg/kg, ENK6 veh + ENa7 3 mg/kg p.o. (Table 3), read-out: Brain concentration) and 2190 ng/g (brain, 3 mg/kg, ENK6 veh + ENa7 3 mg/kg p.o. (Table 4), read-out: Brain concentration). The Blood concentration is 581 ng/mL under setting [1], 1603 ng/mL under setting [2], 461 ng/mL under setting [3] and 1404 ng/mL under setting [4]. Further, the Brain concentration reads like this: under setting [1], 1125 ng/g; under setting [2], 2855 ng/g; under setting [3], 752 ng/g; under setting [4], 2096 ng/g.
